{"source": "patent US7527021B2", "about": "“Non-invasive drug self-administration system for animals” (University of Virginia Patent Foundation, priority 2003, dated 2009)", "key": {"mice": {"system": "mice", "test": "Intranasal aerosol cocaine self-administration, nose-poke frequency (FIG. 4)", "conditions": "intra-nasal aerosol; inverted-U dose response, less self-administration at higher and lower concentrations; 4 h sessions"}, "[1]": {"conditions": "20/mg/kg cocaine via IP injection; cited from earlier work"}, "[2]": {"test": "Cocaine levels in the brains of self-administering animals (ELISA)", "conditions": "self-administered aerosol", "procedure": "Animals were allowed access to the self administration system of the present invention and the number of nosepokes was recorded using two different concentrations of cocaine (1.8 or 21 mg/kg/spray). Animals were sacrificed within 20 min (animals 3,4) or 1 hr (animals 1,2) of last nosepoke, and all nosepokes occurred within less than 1 hr."}}}
{"smiles": "COC(=O)[C@H]1[C@@H](OC(=O)c2ccccc2)C[C@@H]2CC[C@H]1N2C", "note": "[cocaine]", "values": [{"measurement": "cocaine concentration at which animals nose-poke most frequently", "setting": "mice", "result": "~0.9", "unit": "mg/kg/infusion"}, {"measurement": "cocaine in the brain", "setting": "[1]", "result": 0.96, "unit": "mg/kg"}, {"measurement": "Cocaine conc in brain", "setting": "[2]; animal 1, 6 pokes × 1.8 mg/kg/spray, sacrificed within 1 hr of last nosepoke", "result": "0.08 (mg/kg)"}, {"measurement": "Cocaine conc in brain", "setting": "[2]; animal 2, 4 pokes × 1.8 mg/kg/spray, sacrificed within 1 hr of last nosepoke", "result": 0.28, "unit": "mg/kg"}, {"measurement": "Cocaine conc in brain", "setting": "[2]; animal 3, 1 poke × 21.0 mg/kg/spray, sacrificed within 20 min of last nosepoke", "result": 1.03, "unit": "mg/kg"}, {"measurement": "Cocaine conc in brain", "setting": "[2]; animal 4, 2 pokes × 21.0 mg/kg/spray, sacrificed within 20 min of last nosepoke", "result": 2.96, "unit": "mg/kg"}]}
